{
  "source": "patent US20210378246A1",
  "about": "“COMPOSITIONS COMPRISING HALAUXIFEN AND OTHER HERBICIDES AND METHODS THEREOF” (DOW AGROSCIENCES LLC, priority 2018, published 2021)",
  "test_in_all_cases": "Greenhouse post-emergence weed control, visual score 0-100 percent",
  "format_in_all_cases": "in vivo",
  "key": {"[1]": {"test_system": "Chenopodium album L. (common lambsquarters, CHEAL)", "from_the_text": "(§1) Results in Examples are greenhouse trial results.\n(§2) Seeds or nutlets of the desired test plant species were planted in a soil matrix prepared by mixing a loam or sandy loam soil (e.g., 28.6 percent silt, 18.8 percent clay, and 52.6 percent sand, with a pH of about 5.8 and an organic matter content of about 1.8 percent) and calcareous grit in an 80 to 20 ratio. The soil matrix was contained in plastic pots with a volume of 1 quart and a surface area of 83.6 cm2. When required to ensure good germination and healthy plants, a fungicide treatment and/or other chemical or physical treatment was applied. The plants were grown for 8-22 days in a greenhouse with an approximate 14 h photoperiod which was maintained at about 29° C. during the day and 26° C. during the night. Nutrients (Peters Excel® 15-5-15 5-Ca 2-Mg and iron chelate) were applied in the irrigation solution as needed and water was added on a regular basis. Supplemental lighting was provided with overhead metal halide 1000-Watt lamps as necessary. The plants were employed for testing when they reached the first through fourth true leaf stage.\n(§3) Treatments comprised of the acid or esters of halauxifen-methyl (methyl 4-amino-3-chloro-6-(4-chloro-2-fluoro-3-methoxyphenyl)picolinate), each formulated as an SC (suspension concentrate), and various herbicidal components alone and in combination. A form of the compound of Formula I were applied on an acid equivalent basis.\n(§4) Treatment requirements were calculated based upon the rates being tested, the concentration of active ingredient or acid equivalent in the formulation, and a 12 mL application volume at a rate of 187 L/ha.\n(§5) For treatments comprised of formulated and technical compounds, weighed amounts of the technical materials were placed individually in 25 mL glass vials and dissolved in a volume of 97:3 v/v acetone/DMSO to obtain 12× stock solutions, and measured amounts of the formulated compounds were placed individually in 25 mL glass vials and diluted in a volume of 1.5% (v/v) crop oil concentrate or water to obtain 12× stock solutions. […] As required, additional water and/or 97:3 v/v acetone/DMSO was added to individual application solutions so that the final acetone and DMSO concentrations of the application solutions being compared were 8.1% and 0.25%, respectively.\n(§6) All stock solutions and applications solutions were visually inspected for compound compatibility prior to application. Spray solutions were applied to the plant material with an overhead Mandel track sprayer equipped with an 8002E nozzle calibrated to deliver 187 L/ha over an application area of 0.503 m2 at a spray height of 18 to 20 inches (46 to 50 cm) above average plant canopy height. Control plants were sprayed in the same manner with the solvent blank.\nThe treated plants and control plants were placed in a greenhouse as described above and watered by sub-irrigation to prevent wash-off of the test compounds. […], the condition of the test plants as compared with that of the untreated plants was determined visually and scored on a scale of 0 to 100 percent where 0 corresponds to no injury or growth inhibition and 100 corresponds to complete kill."}, "[2]": {"test_system": "Abutilon theophrasti Medik. (velvetleaf, ABUTH)", "from_the_text": "as §1, §2, §3, §4, §5, §6\n(§7) The treated plants and control plants were placed in a greenhouse as described above and watered by sub-irrigation to prevent wash-off of the test compounds. After approximately […], the condition of the test plants as compared with that of the untreated plants was determined visually and scored on a scale of 0 to 100 percent where 0 corresponds to no injury or growth inhibition and 100 corresponds to complete kill."}, "[3]": {"test_system": "Polygonum convolvulus L. (wild buckwheat, POLCO)", "from_the_text": "as §1, §2, §3, §4, §5, §6, §7"}, "[4]": {"test_system": "Amaranthus rudis Sauer, (common waterhemp, AMATA)", "conditions": "7 DAA", "from_the_text": "as §1, §2, §3, §4, §5, §6, §7"}, "[5]": {"test_system": "Sinapis arvensis L. (wild mustard, SINAR)", "from_the_text": "as §1, §2, §3, §4, §5, §6, §7"}},
  "note": "Where “and” joins values, the source holds several entries; their conditions need not be identical. Equal entries are not always repeated.",
  "data": [
    {"smiles": "CCCCCCC(C)OC(=O)COc1nc(F)c(Cl)c(N)c1Cl", "note": "(stereo not drawn) [Chemical 3, 1-methytheptyl 2-[(4-amino-3,5-dichloro-6-fluoro-2-pyridinyl)oxy]acetate]", "values": [
      {"measurement": "Chemical 3 Mean % Weed Control", "setting": "[1]; 7 DAA, alone at 8.8 gae/ha", "result": 0, "unit": "%"},
      {"measurement": "Chemical 3 Mean % Weed Control", "setting": "[1]; 7 DAA, alone at 17.S gae/ha", "result": 0, "unit": "%"},
      {"measurement": "Chemical 3 Mean % Weed Control", "setting": "[1]; 7 DAA, alone at 17.5 gae/ha", "result": 0, "unit": "%"},
      {"measurement": "Chemical 3 Mean % Weed Control", "setting": "[1]; 7 DAA, alone at 35 gae/ha", "result": 0, "unit": "%"},
      {"measurement": "Chemical 3 Mean % Weed Control", "setting": "[1]; 7 DAA, alone at 70 gae/ha", "result": 10, "unit": "%"},
      {"measurement": "Chemical 3 Mean % Weed Control", "setting": "[1]; 14 DAA, alone at 8.8 gae/ha", "result": 0, "unit": "%"},
      {"measurement": "Chemical 3 Mean % Weed Control", "setting": "[1]; 14 DAA, alone at 17.5 gae/ha", "result": "10% and 5%"},
      {"measurement": "Chemical 3 Mean % Weed Control", "setting": "[1]; 14 DAA, alone at 35 gae/ha", "result": "5% and 3.75% and 1.75%"},
      {"measurement": "Chemical 3 Mean % Weed Control", "setting": "[1]; 14 DAA, alone at 70 gae/ha", "result": "31.25% and 35%"},
      {"measurement": "Chemical 3 Mean % Weed Control", "setting": "[1]; 17 DAA, alone at 8.8 gae/ha", "result": 0, "unit": "%"},
      {"measurement": "Chemical 3 Mean % Weed Control", "setting": "[1]; 17 DAA, alone at 17.5 gae/ha", "result": 8.75, "unit": "%"},
      {"measurement": "Chemical 3 Mean % Weed Control", "setting": "[1]; 17 DAA, alone at 35 gae/ha", "result": 3.75, "unit": "%"},
      {"measurement": "Chemical 3 Mean % Weed Control", "setting": "[1]; 17 DAA, alone at 70 gae/ha", "result": 38.75, "unit": "%"},
      {"measurement": "Chemical 3 Mean % Weed Control", "setting": "[2]; 7 DAA, alone at 8.8 gae/ha", "result": 15, "unit": "%"},
      {"measurement": "Chemical 3 Mean % Weed Control", "setting": "[2]; 7 DAA, alone at 17.5 gae/ha", "result": 28.75, "unit": "%"},
      {"measurement": "Chemical 3 Mean % Weed Control", "setting": "[2]; 7 DAA, alone at 35 gae/ha", "result": 67.5, "unit": "%"},
      {"measurement": "Chemical 3 Mean % Weed Control", "setting": "[2]; 7 DAA, alone at 70 gae/ha", "result": 75.5, "unit": "%"},
      {"measurement": "Chemical 3 Mean % Weed Control", "setting": "[2]; 14 DAA, alone at 8.8 gae/ha", "result": 2.5, "unit": "%"},
      {"measurement": "Chemical 3 Mean % Weed Control", "setting": "[2]; 14 DAA, alone at 17.5 gae/ha", "result": 20, "unit": "%"},
      {"measurement": "Chemical 3 Mean % Weed Control", "setting": "[2]; 14 DAA, alone at 35 gae/ha", "result": 67, "unit": "%"},
      {"measurement": "Chemical 3 Mean % Weed Control", "setting": "[2]; 14 DAA, alone at 70 gae/ha", "result": 70, "unit": "%"},
      {"measurement": "Chemical 3 Mean % Weed Control", "setting": "[3]; 7 DAA, alone at 8.6 gae/ha", "result": 52.5, "unit": "%"},
      {"measurement": "Chemical 3 Mean % Weed Control", "setting": "[3]; 7 DAA, alone at 8.8 gae/ha", "result": 52.5, "unit": "%"},
      {"measurement": "Chemical 3 Mean % Weed Control", "setting": "[3]; 7 DAA, alone at 17.5 gae/ha", "result": 47.5, "unit": "%"},
      {"measurement": "Chemical 3 Mean % Weed Control", "setting": "[3]; 14 DAA, alone at 8.8 gae/ha", "result": 12.5, "unit": "%"},
      {"measurement": "Chemical 3 Mean % Weed Control", "setting": "[3]; 14 DAA, alone at 17.5 gae/ha", "result": 62.25, "unit": "%"},
      {"measurement": "Chemical 3 Mean % Weed Control", "setting": "[3]; 21 DAA, alone at 8.8 gae/ha", "result": 0, "unit": "%"},
      {"measurement": "Chemical 3 Mean % Weed Control", "setting": "[4]; alone at 8.8 gae/ha", "result": 0, "unit": "%"},
      {"measurement": "Chemical 3 Mean % Weed Control", "setting": "[4]; alone at 17.5 gae/ha", "result": 3.75, "unit": "%"},
      {"measurement": "Chemical 3 Mean % Weed Control", "setting": "[4]; alone at 35 gae/ha", "result": 3.75, "unit": "%"},
      {"measurement": "Chemical 3 Mean % Weed Control", "setting": "[5]; 14 DAA, alone at 35 gae/ha", "result": 63.75, "unit": "%"},
      {"measurement": "Chemical 3 Mean % Weed Control", "setting": "[5]; 21 DAA, alone at 17.5 gae/ha", "result": 54.25, "unit": "%"}
    ]},
    {"smiles": "COC(=O)c1nc(-c2ccc(Cl)c(OC)c2F)cc(N)c1Cl", "note": "[Chemical 1, methyl 4-amino-3-chloro-6-(4-chloro-2-fluoro-3-methoxyphenyl)picolinate]", "values": [
      {"measurement": "Chemical 1 Mean % Weed Control", "setting": "[1]; 7 DAA, alone at 1 gae/ha", "result": 28.75, "unit": "%"},
      {"measurement": "Chemical 1 Mean % Weed Control", "setting": "[1]; 7 DAA, alone at 2 gae/ha", "result": 56.25, "unit": "%"},
      {"measurement": "Chemical 1 Mean % Weed Control", "setting": "[1]; 7 DAA, alone at 4 gae/ha", "result": 56.25, "unit": "%"},
      {"measurement": "Chemical 1 Mean % Weed Control", "setting": "[1]; 14 DAA, alone at 1 gae/ha", "result": "33.33% and 40%"},
      {"measurement": "Chemical 1 Mean % Weed Control", "setting": "[1]; 14 DAA, alone at 2 gae/ha", "result": 60, "unit": "%"},
      {"measurement": "Chemical 1 Mean % Weed Control", "setting": "[1]; 14 DAA, alone at 4 gae/ha", "result": "62.5% and 63.33%"},
      {"measurement": "Chemical 1 Mean % Weed Control", "setting": "[1]; 17 DAA, alone at 1 gae/ha", "result": 40, "unit": "%"},
      {"measurement": "Chemical 1 Mean % Weed Control", "setting": "[1]; 17 DAA, alone at 2 gae/ha", "result": 53.75, "unit": "%"},
      {"measurement": "Chemical 1 Mean % Weed Control", "setting": "[1]; 17 DAA, alone at 4 gae/ha", "result": 62.5, "unit": "%"},
      {"measurement": "Chemical 1 Mean % Weed Control", "setting": "[2]; 7 DAA, alone at 1 gae/ha", "result": 81.25, "unit": "%"},
      {"measurement": "Chemical 1 Mean % Weed Control", "setting": "[2]; 7 DAA, alone at 2 gae/ha", "result": 81.25, "unit": "%"},
      {"measurement": "Chemical 1 Mean % Weed Control", "setting": "[2]; 7 DAA, alone at 4 gae/ha", "result": 84.5, "unit": "%"},
      {"measurement": "Chemical 1 Mean % Weed Control", "setting": "[2]; 14 DAA, alone at 2 gae/ha", "result": 87.25, "unit": "%"},
      {"measurement": "Chemical 1 Mean % Weed Control", "setting": "[3]; 7 DAA, alone at 1 gae/ha", "result": 2.5, "unit": "%"},
      {"measurement": "Chemical 1 Mean % Weed Control", "setting": "[3]; 7 DAA, alone at 2 gae/ha", "result": 11.25, "unit": "%"},
      {"measurement": "Chemical 1 Mean % Weed Control", "setting": "[3]; 7 DAA, alone at 4 gae/ha", "result": 28.75, "unit": "%"},
      {"measurement": "Chemical 1 Mean % Weed Control", "setting": "[3]; 14 DAA, alone at 2 gae/ha", "result": 0, "unit": "%"},
      {"measurement": "Chemical 1 Mean % Weed Control", "setting": "[3]; 14 DAA, alone at 4 gae/ha", "result": 20, "unit": "%"},
      {"measurement": "Chemical 1 Mean % Weed Control", "setting": "[3]; 21 DAA, alone at 1 gae/ha", "result": 0, "unit": "%"},
      {"measurement": "Chemical 1 Mean % Weed Control", "setting": "[3]; 21 DAA, alone at 2 gae/ha", "result": 6.25, "unit": "%"},
      {"measurement": "Chemical 1 Mean % Weed Control", "setting": "[3]; 21 DAA, alone at 4 gae/ha", "result": 17.5, "unit": "%"},
      {"measurement": "Chemical 1 Mean % Weed Control", "setting": "[4]; alone at 2 gae/ha", "result": 70.5, "unit": "%"},
      {"measurement": "Chemical 1 Mean % Weed Control", "setting": "[4]; alone at 4 gae/ha", "result": 73, "unit": "%"},
      {"measurement": "Chemical 1 Mean % Weed Control", "setting": "[5]; 14 DAA, alone at 4 gae/ha", "result": 0, "unit": "%"},
      {"measurement": "Chemical 1 Mean % Weed Control", "setting": "[5]; 21 DAA, alone at 1 gae/ha", "result": 1.25, "unit": "%"}
    ]}
  ]
}
